Assay results as given in patent publication US20090326196A1 (priority 2006, published 2009).
Square brackets hold non-standard residues; d marks the D form. Peptide text beside a SMILES is read from it. Leu(5,5,5,5',5',5'-F6) = N[C@@H](CC(C(F)(F)F)C(F)(F)F)C(=O)O

Experiments:
[1] = system: DPP IV (from porcine kidney, EC 3.4.14.5); test: DPP IV 20 unit/L in 50 mM Tris-HCl, 1 mM EDTA, pH 7.6; conditions: 37° C., up to 48 h
[2] = biological target: DPP IV (from porcine kidney, EC 3.4.14.5) (Sus scrofa, UniProt P22411); conditions: for hydrolysis products by RP-HPLC (FIG. 38): F8: 48 h at 20 U/L and 1 h at 200 U/L, F89: 20 and 60 mins; for fragments detected after incubation with DPP IV: after 24 h incubation
DPP IV (from porcine kidney, EC 3.4.14.5) (Sus scrofa, UniProt P22411), sequence (P22411 whole entry, the tested form may be a part): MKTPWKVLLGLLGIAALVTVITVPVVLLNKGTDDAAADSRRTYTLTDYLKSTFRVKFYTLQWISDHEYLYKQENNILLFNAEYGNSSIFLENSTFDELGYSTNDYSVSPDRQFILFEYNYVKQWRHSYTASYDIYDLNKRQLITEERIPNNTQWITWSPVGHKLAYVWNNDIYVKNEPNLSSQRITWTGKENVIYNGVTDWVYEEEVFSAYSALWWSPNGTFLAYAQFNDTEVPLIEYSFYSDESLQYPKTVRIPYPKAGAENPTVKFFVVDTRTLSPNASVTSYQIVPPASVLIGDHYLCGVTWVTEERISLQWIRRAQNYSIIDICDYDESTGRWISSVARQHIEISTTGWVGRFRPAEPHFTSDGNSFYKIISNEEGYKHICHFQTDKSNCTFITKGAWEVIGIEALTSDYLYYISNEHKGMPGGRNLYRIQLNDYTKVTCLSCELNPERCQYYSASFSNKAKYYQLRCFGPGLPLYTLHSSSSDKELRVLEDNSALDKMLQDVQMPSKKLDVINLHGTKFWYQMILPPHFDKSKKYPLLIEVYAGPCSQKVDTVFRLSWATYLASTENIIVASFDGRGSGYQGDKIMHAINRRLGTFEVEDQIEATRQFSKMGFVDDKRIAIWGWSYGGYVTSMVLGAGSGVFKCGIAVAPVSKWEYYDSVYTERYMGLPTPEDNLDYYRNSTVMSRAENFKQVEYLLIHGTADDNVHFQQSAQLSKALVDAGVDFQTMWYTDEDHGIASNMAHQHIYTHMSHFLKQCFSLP
Protocol: Proteolytic Stability. […] DPP IV has a relative specific requirement for substrate residues at P2, P1, P1′ and P2′ positions regarding the scissile Ala-Glu amide bond. Especially, at P1 position, Pro and Ala are highly favored. […] The proteolytic stability of peptides towards DPP IV (from porcine kidney, EC 3.4.14.5) was determined by analytical RP-HPLC assay (detection at 230 nm). A chromogenic substrate, Gly-Pro-p-nitroanilide, was employed to calibrate specific activity by measuring absorbance at 410 nm using Δε=8800 M^−1·cm^−1 in 100 mM Tris-HCl, pH 8.0. […] Reactions were quenched with 600 μL of 0.2% TFA at time intervals and stored on dry ice until the analysis. An analytical C18 column [J. T. Baker C18, 5 μm, 4 mm×250 mm] was used for separation and quantitation of intact and digested peptides with a binary solvent system can/H2O/0.1% TFA. First order rate constants were obtained as the fitted value±one standard deviation by fitting with the equation: […]
where A is the concentration of peptides; k the first order rate constant; t the reaction time in min; and [A]0 the initial concentration of peptides. The fragments derived from the full-length peptides were manually collected and identified by ESI-MS.

[3] = biological target: T1, trypsin (from bovine pancreas, EC 3.4.21.4) (Bos taurus, UniProt P00760); test: in vitro; format: in vitro ADME
T1 construct: trypsin (from bovine pancreas, EC 3.4.21.4); from tissue; host or cells: bovine pancreas
T1 sequence (P00760 24-246): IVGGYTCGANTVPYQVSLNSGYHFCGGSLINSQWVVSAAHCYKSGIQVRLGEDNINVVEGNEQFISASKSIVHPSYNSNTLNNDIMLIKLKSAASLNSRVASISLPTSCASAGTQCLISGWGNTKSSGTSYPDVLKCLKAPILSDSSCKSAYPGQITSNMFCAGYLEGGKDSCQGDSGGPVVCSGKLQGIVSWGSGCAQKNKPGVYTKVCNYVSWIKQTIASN
Protocol: The proteolytic stability of peptides towards trypsin (from bovine pancreas, EC 3.4.21.4) was determined by an analytical RP-HPLC assay. […] The enzyme concentration (in 1 mM HCl) was determined by absorbance at 280 nm. […] The amount of enzyme was optimized so that kinetics of proteolytic reactions could be assayed by RP-HPLC (detection at 230 nm). The peptides were incubated with trypsin at 37° C. over a period of 3 h. Aliquots (10 μL) were taken at different reaction times, diluted with 0.2% TFA (440 μL) and stored at −80° C. […] The remaining full-length peptide concentration was normalized with respect to the initial concentration.
where A is the normalized concentration of peptides; k is the pseudo first order rate constant; t is the reaction time in mins; and [A]0 is the initial concentration of peptides. Each fragment cleaved from the full-length peptides was identified by ESI-MS so that cleavage patterns could be established and compared.

[4] = system: trypsin (from bovine pancreas, EC 3.4.21.4); test: 1 μg trypsin in 200 μL of PBS buffer (pH 7.4, 10 mM PO4^3−, 150 mM NaCl); conditions: 37° C., up to 3 h
[5] = system: trypsin (from bovine pancreas, EC 3.4.21.4); test: 0.5 μg trypsin in 200 μL of PBS buffer (pH 7.4, 10 mM PO4^3−, 150 mM NaCl); conditions: 37° C., up to 3 h
[6] = system: human red blood cells (hRBC); format: cell-based
Protocol: The selectivity with which the peptides are able to lyse bacterial cells compared to mammalian cells was interrogated by a hemolysis assay against human red blood cells (hRBC). […] Our results are consistent with this trend.
Fresh human red blood cells (hRBCs) were centrifuged at 3,500 rpm and washed with PBS buffer until the supernatant was clear. The hRBCs were then resuspended and diluted to a final concentration of 1% (v/v) in PBS and stored at 4° C. […] An aliquot (50 μL) of supernatant was transferred to a new 96-well plate containing 50 μL H2O in each well. The absorbance at 415 nm was measured using a plate reader. Wells containing melittin at 100-400 μg/mL served as positive controls, and wells containing only buffer and hRBCs served as negative controls. The percentage hemolysis was calculated using the equation:
where complete hemolysis is defined as the average absorbance of all wells containing 100-400 μg/[…] melittin.

Compound: HXXGTFTSDVSSYLEGQAAKEFIAWLVKGR
- not cleaved [1]: no fragments were detected after 24 h incubation

Compound: CC[C@H](C)[C@H](NC(=O)[C@H](Cc1ccccc1)NC(=O)[C@H](CCC(=O)O)NC(=O)[C@H](CCCCN)NC(=O)[C@H](C)NC(=O)[C@H](C)NC(=O)[C@H](CCC(N)=O)NC(=O)CNC(=O)[C@H](CCC(=O)O)NC(=O)[C@H](CC(C)C)NC(=O)[C@H](Cc1ccc(O)cc1)NC(=O)[C@H](CO)NC(=O)[C@H](CO)NC(=O)[C@@H](NC(=O)[C@H](CC(=O)O)NC(=O)[C@H](CO)NC(=O)[C@@H](NC(=O)[C@H](Cc1ccccc1)NC(=O)[C@@H](NC(=O)CNC(=O)[C@H](CC(C(F)(F)F)C(F)(F)F)NC(=O)[C@H](CC(C(F)(F)F)C(F)(F)F)NC(=O)[C@@H](N)Cc1cnc[nH]1)[C@@H](C)O)[C@@H](C)O)C(C)C)C(=O)N[C@@H](C)C(=O)N[C@@H](Cc1c[nH]c2ccccc12)C(=O)N[C@@H](CC(C)C)C(=O)N[C@H](C(=O)N[C@@H](CCCCN)C(=O)NCC(=O)N[C@@H](CCCNC(=N)N)C(N)=O)C(C)C [Peptide F89]
- hydrolysis products by RP-HPLC (FIG. 38) [2]: No detectable hydrolysis products
- fragments detected after incubation with DPP IV [2]: no fragments were detected

Compound: CC(C)C[C@H](NC(=O)CNC(=O)[C@H](C)NC(=O)[C@@H](N)CCCNC(=N)N)C(=O)N[C@@H](CCC(N)=O)C(=O)N[C@@H](Cc1ccccc1)C(=O)N1CCC[C@H]1C(=O)N[C@H](C(=O)NCC(=O)N[C@@H](CCCNC(=N)N)C(=O)N[C@H](C(=O)N[C@@H](Cc1c[nH]cn1)C(=O)N[C@@H](CCCNC(=N)N)C(=O)N[C@@H](CC(C(F)(F)F)C(F)(F)F)C(=O)N[C@@H](CC(C(F)(F)F)C(F)(F)F)C(=O)N[C@@H](CCCNC(=N)N)C(=O)N[C@@H](CCCCN)C(=O)O)C(C)C)C(C)C [BII5F2] (H-RAGLQFPVGRVHR[Leu(5,5,5,5',5',5'-F6)][Leu(5,5,5,5',5',5'-F6)]RK-OH)
- fold more resistant to hydrolysis by trypsin [3]: ~3 fold

Compound: CC[C@H](C)[C@H](NC(=O)[C@H](Cc1ccccc1)NC(=O)[C@H](CCC(=O)O)NC(=O)[C@H](CCCCN)NC(=O)[C@H](C)NC(=O)[C@H](C)NC(=O)[C@H](CCC(N)=O)NC(=O)CNC(=O)[C@H](CCC(=O)O)NC(=O)[C@H](CC(C)C)NC(=O)[C@H](Cc1ccc(O)cc1)NC(=O)[C@H](CO)NC(=O)[C@H](CO)NC(=O)[C@@H](NC(=O)[C@H](CC(=O)O)NC(=O)[C@H](CO)NC(=O)[C@@H](NC(=O)[C@H](Cc1ccccc1)NC(=O)[C@@H](NC(=O)CNC(=O)[C@H](CC(C(F)(F)F)C(F)(F)F)NC(=O)[C@H](C)NC(=O)[C@@H](N)Cc1c[nH]cn1)[C@@H](C)O)[C@@H](C)O)C(C)C)C(=O)N[C@@H](C)C(=O)N[C@@H](Cc1c[nH]c2ccccc12)C(=O)N[C@@H](CC(C)C)C(=O)N[C@H](C(=O)N[C@@H](CCCCN)C(=O)NCC(=O)N[C@@H](CCCNC(=N)N)C(N)=O)C(C)C [Peptide F9]
- resistance to DPP IV, in words ([2]; hexafluoroleucine at P1′ and P2′ positions): moderate enhanced resistance

Compound: GIGKFLHAAKKFAKAFVAEIMNS
- fragment found [4]: M2 (1-14), first_seen

Compound: HXEGTFTSDVSSYLEGQAAKEFIAWLVKGR
- not cleaved [1]: no fragments were detected after 24 h incubation

Compound: HAXGTFTSDVSSYLEGQAAKEFIAWLVKGR
- fragment found [1]: corresponding peptide fragment GLP-1 (9-36) amide, major

Compound: TRSSRAGLQFPVGRVHRXXRK
- cleaved bond [5]: initial P1 site of cleavage BII1F2 (R14), first_seen
- fragment found [5]: BII1F2 (6-21), first_seen

Compound: magainin 2 [Peptide M2, reference compound]
- time to complete hydrolysis [3]: 33 min

Compound: GIGKFXHAAKKFAKAFVAEXMNS
- fragment found [4]: M2F2 (1-14), first_seen

Compound: CC[C@H](C)[C@H](NC(=O)CN)C(=O)NCC(=O)N[C@@H](CCCCN)C(=O)N[C@@H](Cc1ccccc1)C(=O)N[C@@H](CC(C(F)(F)F)C(F)(F)F)C(=O)N[C@@H](Cc1cnc[nH]1)C(=O)N[C@@H](C)C(=O)N[C@@H](C)C(=O)N[C@@H](CCCCN)C(=O)N[C@@H](CCCCN)C(=O)N[C@@H](Cc1ccccc1)C(=O)N[C@@H](C)C(=O)N[C@@H](CCCCN)C(=O)N[C@@H](C)C(=O)N[C@@H](Cc1ccccc1)C(=O)N[C@H](C(=O)N[C@@H](C)C(=O)N[C@@H](CCC(=O)O)C(=O)N[C@@H](CC(C(F)(F)F)C(F)(F)F)C(=O)N[C@@H](CCSC)C(=O)N[C@@H](CC(N)=O)C(=O)N[C@@H](CO)C(N)=O)C(C)C [Peptide M2F2] (H-GIGKF[Leu(5,5,5,5',5',5'-F6)]HAAKKFAKAFVAE[Leu(5,5,5,5',5',5'-F6)]MNS-NH2)
- hemolytic activity relative to parent peptide, in words [6]: slightly more hemolytic
- more stable to proteolysis by a factor, relative to M2 [3]: ~1.2

Compound: buforin II[1-21] [BII1, reference compound]
- initial P1 site of cleavage [3]: R17

Compound: CC[C@H](C)[C@H](NC(=O)[C@H](Cc1ccccc1)NC(=O)[C@H](CCC(=O)O)NC(=O)[C@H](CCCCN)NC(=O)[C@H](C)NC(=O)[C@H](C)NC(=O)[C@H](CCC(N)=O)NC(=O)CNC(=O)[C@H](CCC(=O)O)NC(=O)[C@H](CC(C)C)NC(=O)[C@H](Cc1ccc(O)cc1)NC(=O)[C@H](CO)NC(=O)[C@H](CO)NC(=O)[C@@H](NC(=O)[C@H](CC(=O)O)NC(=O)[C@H](CO)NC(=O)[C@@H](NC(=O)[C@H](Cc1ccccc1)NC(=O)[C@@H](NC(=O)CNC(=O)[C@H](CCC(=O)O)NC(=O)[C@H](CC(C(F)(F)F)C(F)(F)F)NC(=O)[C@@H](N)Cc1cnc[nH]1)[C@@H](C)O)[C@@H](C)O)C(C)C)C(=O)N[C@@H](C)C(=O)N[C@@H](Cc1c[nH]c2ccccc12)C(=O)N[C@@H](CC(C)C)C(=O)N[C@H](C(=O)N[C@@H](CCCCN)C(=O)NCC(=O)N[C@@H](CCCNC(=N)N)C(N)=O)C(C)C [Peptide F8]
- hydrolysis products by RP-HPLC (FIG. 38) [2]: No detectable hydrolysis products
- fragments detected after incubation with DPP IV [2]: no fragments were detected
